# Source: PMC10600247, “Impact of C- and N-terminal protection on the stability, metal chelation and antimicrobial properties of calcitermin” (Scientific Reports, 2023)
# Residues, ends and D or L forms follow the SMILES beside them.
# Experiments:
# E. coli (ATCC 25922) = assay: In vitro anti-E. coli CFU assay; format: cell-based, Escherichia coli; details: pH 5.4; for mean CFU number ± S.D.: per 0.1 mL
# Procedure: All microbes were grown at 37 °C in Tryptic Soy Broth (TSB; Biolife, Milan, Italy) or Tryptic Soy Agar plates (TSA, Biolife, Milan, Italy). Peptides were tested at a final concentration C = 0.128, 0.064, 0.032 mg/mL, in the presence or absence of ZnCl2 or CuCl2, at a M:L molar ratio 0.9:1. Briefly, all the microbes were expanded in TSB at 37 °C under agitation for 12 h and then sub-cultured by 1:10 dilution in TSB under the same conditions until reaching OD600nm = 0.3–0.4, as measured by spectrophotometric reading using a GENESYS 10S UV–Vis spectrophotometer (Thermo Scientific, Milan, Italy), corresponding to 0.9–1.2 × 10^7 colony forming units (CFU) per mL, 1.5–2 × 10^8 CFU/mL and 2.4–3.2 × 10^8 CFU/mL, for C. albicans, S. aureus and E. coli respectively. The cultures were then centrifuged at 4500 rpm for 10 min in a SL 8 centrifuge (TX-150 Rotor) (Thermo Scientific, Milan, Italy), and the cellular pellets were washed with PBS pH 5.4. Pelletized cultures were then suspended in 10 mL of PBS pH 5.4, then the suspensions were diluted to a final concentration of 10^4 CFU/mL. Aliquots of 100 µl (corresponding to 10^3 CFU) were seeded in each well of a 96-wells plate. 3 µl of TSB at pH 5.4 were added to each well to obtain a final 1.5% TSB concentration in the culture medium. Peptides were serially diluted in PBS pH 5.4 to C = 0.257, 0.128, and 0.064 mg/mL. ZnCl2 and CuCl2 solutions were added where requested to obtain a M:L ratio 0.9:1. 100 µl of the prepared peptides ± ZnCl2/CuCl2 solutions were then added to each well, obtaining the final 0.128, 0.064 and 0.032 mg/mL peptide concentrations in a total 0.2 mL volume. PBS alone and PBS + ZnCl2/CuCl2 solutions were included as controls. The plates were incubated at 37 °C on a platform rocker with slow stirring for 3 and 24 h. At the end of the incubation times, 100 µl aliquots were taken from each sample and diluted in PBS pH 5.4 to be seeded on TSA plates. Specifically, aliquots were diluted 1:10 at 3 h, and 1:200, 1:100,000 and 1:10 at 24 h, for C. albicans, E. coli, and S. aureus respectively. After incubation for 24 h at 37 °C, grown CFUs were enumerated. Samples were assayed in triplicate in two independent experiments. Student’s t-test was used for the evaluation of significance in biological tests; a p value ≤ 0.05 was considered significant.
# [1] = Excerpt: Stability constants for proton and metal complexes were obtained from pH-metric titration curves registered at T = 298 K and ionic strength 0.1 M (KCl). The potentiometric apparatus was previously described. Solutions were titrated with 0.1 M carbonate-free KOH. The electrode was daily calibrated for hydrogen ion concentration by titrating HNO3 with the standard base solution, under the same experimental conditions as above. The asymmetry potential and the slope of the electrode couple were computed by means of […][41] and Glee[42] programs. The purities and exact concentrations of the ligand solutions were determined by the Gran method. The […][44] program was employed for the overall formation constant (β) calculations, referred to the following equilibrium equation: pM + qL + rH ⇆ MpLqHr (charges omitted; p is 0 in the case of ligand protonation; r can be negative). The computed standard deviations (referring to random errors only) were given by the program itself and are shown in parentheses as uncertainties on the last significant figure. Hydrolysis constants for metal ions were taken from the literature[45],[46]. The distribution and competition diagrams were computed using the HYSS program.
# 1. Wild-type calcitermin: thermodynamic data
# Wild-type calcitermin (WT) has been previously investigated by our research group in aqueous solutions and ionic medium NaClO4.1 For the sake of comparison, potentiometric studies of WT and its copper and zinc complexes have been performed in a different ionic medium (KCl 0.1 M). The study of the speciation under different experimental conditions, changing ionic medium and metal-ligand ratio, is essential to comprehensively describe the thermodynamics of calcitermin, which is usually found in multicomponent media like biological fluids.
# Table S1. Equilibrium constants for protonation of WT and its Cu2+ and Zn2+ complex formation at T = 298 K and I = 0.1 M (KCl). Values in parentheses are standard deviations on the last significant figure.
# [2] = peptide 0.032 mg/mL + CuCl2 (0.9:1), 24 h
# [3] = peptide 0.032 mg/mL + ZnCl2 (0.9:1), 24 h
# [4] = peptide 0.064 mg/mL + CuCl2 (0.9:1), 24 h
# [5] = peptide 0.064 mg/mL + ZnCl2 (0.9:1), 24 h
# [6] = peptide 0.128 mg/mL + ZnCl2 (0.9:1), 24 h
# [7] = peptide alone 0.032 mg/mL, 24 h
# [8] = peptide alone 0.064 mg/mL, 24 h
# [9] = peptide alone 0.128 mg/mL, 24 h
# [10] = T = 298 K, I = 0.1 M (KCl), charges omitted
smiles,measurement,setting,value
"CC[C@H](C)[C@H](NC(=O)[C@H](C)NC(=O)[C@@H](N)C(C)C)C(=O)N[C@@H](C)C(=O)N[C@@H](CC(C)C)C(=O)N[C@@H](CCCCN)C(=O)N[C@@H](C)C(=O)N[C@@H](C)C(=O)N[C@@H](Cc1c[nH]cn1)C(=O)N[C@@H](Cc1ccc(O)cc1)C(=O)N[C@@H](Cc1c[nH]cn1)C(=O)N[C@H](C(=O)N[C@@H](Cc1c[nH]cn1)C(=O)N[C@@H](CCCCN)C(=O)N[C@@H](CCC(=O)O)C(N)=O)[C@@H](C)O [L3, VAIALKAAHYHTHKE-NH2] (H-VAIALKAAHYHTHKE-NH2)",mean CFU number ± S.D.,"E. coli (ATCC 25922); peptide 0.032 mg/mL + CuCl2 (0.9:1), 3 h",509 ± 100 CFU
same,CFU decrease/increase with respect to untreated controls,E. coli (ATCC 25922); [2],+7%
same,mean CFU number ± S.D.,E. coli (ATCC 25922); [2],184 ± 17 CFU
same,mean CFU number ± S.D.,"E. coli (ATCC 25922); peptide 0.032 mg/mL + ZnCl2 (0.9:1), 3 h",439 ± 91 CFU
same,CFU decrease/increase with respect to untreated controls,E. coli (ATCC 25922); [3],+17%
same,mean CFU number ± S.D.,E. coli (ATCC 25922); [3],202 ± 23 CFU
same,mean CFU number ± S.D.,"E. coli (ATCC 25922); peptide 0.064 mg/mL + CuCl2 (0.9:1), 3 h",198 ± 117 CFU
same,CFU decrease/increase with respect to untreated controls,E. coli (ATCC 25922); [4],-20%
same,mean CFU number ± S.D.,E. coli (ATCC 25922); [4],138 ± 48 CFU
same,mean CFU number ± S.D.,"E. coli (ATCC 25922); peptide 0.064 mg/mL + ZnCl2 (0.9:1), 3 h",224 ± 4 CFU
same,CFU decrease/increase with respect to untreated controls,E. coli (ATCC 25922); [5],+8%
same,mean CFU number ± S.D.,E. coli (ATCC 25922); [5],186 ± 21 CFU
same,mean CFU number ± S.D.,"E. coli (ATCC 25922); peptide 0.128 mg/mL + CuCl2 (0.9:1), 3 h",191 ± 7 CFU
same,mean CFU number ± S.D.,"E. coli (ATCC 25922); peptide 0.128 mg/mL + CuCl2 (0.9:1), 24 h",102 ± 20 CFU
same,mean CFU number ± S.D.,"E. coli (ATCC 25922); peptide 0.128 mg/mL + ZnCl2 (0.9:1), 3 h",59 ± 9 CFU
same,CFU decrease/increase with respect to untreated controls,E. coli (ATCC 25922); [6],+9%
same,mean CFU number ± S.D.,E. coli (ATCC 25922); [6],187 ± 17 CFU
same,CFU decrease/increase with respect to untreated controls,"E. coli (ATCC 25922); peptide alone 0.032 mg/mL, 3 h",-23%
same,mean CFU number ± S.D.,"E. coli (ATCC 25922); peptide alone 0.032 mg/mL, 3 h",810 ± 100 CFU
same,CFU decrease/increase with respect to untreated controls,E. coli (ATCC 25922); [7],+17%
same,mean CFU number ± S.D.,E. coli (ATCC 25922); [7],202 ± 18 CFU
same,CFU decrease/increase with respect to untreated controls,"E. coli (ATCC 25922); peptide alone 0.064 mg/mL, 3 h",-30%
same,mean CFU number ± S.D.,"E. coli (ATCC 25922); peptide alone 0.064 mg/mL, 3 h",737 ± 147 CFU
same,CFU decrease/increase with respect to untreated controls,E. coli (ATCC 25922); [8],-3%
same,mean CFU number ± S.D.,E. coli (ATCC 25922); [8],166 ± 8 CFU
same,CFU decrease/increase with respect to untreated controls,"E. coli (ATCC 25922); peptide alone 0.128 mg/mL, 3 h",-15%
same,mean CFU number ± S.D.,"E. coli (ATCC 25922); peptide alone 0.128 mg/mL, 3 h",893 ± 113 CFU
same,CFU decrease/increase with respect to untreated controls,E. coli (ATCC 25922); [9],+12%
same,mean CFU number ± S.D.,E. coli (ATCC 25922); [9],193 ± 9 CFU
same,pKa [CuH2L],[1],7.75
same,pKa [CuH3L],[1],6.90
same,pKa [CuH4L],[1],6.21
same,pKa [CuH5L],[1],5.16
same,pKa [CuHL],[1],9.53
same,pKa [CuL],[1],10.01
same,pKa [ZnH2L],[1],8.65
same,pKa [ZnH3L],[1],7.69
same,pKa [ZnH4L],[1],7.32
same,pKa [ZnH5L],[1],5.6
same,pKa [ZnHL],[1],9.47
same,logβ [CuH2L],[1]; [10],33.11(2)
same,logβ [CuH3L],[1]; [10],40.00(3)
same,logβ [CuH4L],[1]; [10],46.21(2)
same,logβ [CuH5L],[1]; [10],51.38(2)
same,logβ [CuH-1L],[1]; [10],5.82(4)
same,logβ [CuHL],[1]; [10],25.36(3)
same,logβ [CuL],[1]; [10],15.83(5)
same,logβ [ZnH2L],[1]; [10],28.06(4)
same,logβ [ZnH3L],[1]; [10],35.75(6)
same,logβ [ZnH4L],[1]; [10],43.07(3)
same,logβ [ZnH5L],[1]; [10],48.7(1)
same,logβ [ZnHL],[1]; [10],19.40(5)
same,logβ [ZnL],[1]; [10],9.94(4)
